ChEMBL document CHEMBL1201862, “PubChem BioAssay data set” (2004)
“And” between values parts separate entries of the source, which are not always exact repeats. Equal entries are not always repeated.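 How tested: cells in 96-well plates exposed to compound for 48 hours at five concentrations. Here, GI50 denotes the concentration required for 50% inhibition of growth.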 The source made the active and inactive calls. No stated cut-off is given here; in the data, active = GI50 up to about 1.1 µM and inactive = higher.

Columns and labels:
Assay in all cases: NCI-60 cell line screen, 48 h
786-0 = tested on: 786-0
A549 = tested on: A549
ACHN = tested on: ACHN
CCRF-CEM = tested on: CCRF-CEM
DLD-1 = tested on: DLD-1
DMS-114 = tested on: DMS-114
DMS-273 = tested on: DMS-273
DU-145 = tested on: DU-145
HCC 2998 = tested on: HCC 2998
HCT-116 = tested on: HCT-116
HOP-18 = tested on: HOP-18
HOP-62 = tested on: HOP-62
KM-20L2 = tested on: KM-20L2
LOX IMVI = tested on: LOX IMVI
M14 = tested on: M14
M19-MEL = tested on: M19-MEL
MDA-MB-231 = tested on: MDA-MB-231
MDA-MB-435 = tested on: MDA-MB-435
MDA-N = tested on: MDA-N
Malme-3M = tested on: Malme-3M
NCI-H460 = tested on: NCI-H460
NCI/ADR-RES = tested on: NCI/ADR-RES
PC-3 = tested on: PC-3
RXF 393 = tested on: RXF 393
SF-268 = tested on: SF-268
SF-539 = tested on: SF-539
SK-MEL-2 = tested on: SK-MEL-2
SN12C = tested on: SN12C
SNB-75 = tested on: SNB-75
SNB-78 = tested on: SNB-78
SW-620 = tested on: SW-620
T47D = tested on: T47D
TK-10 = tested on: TK-10
XF498 = tested on: XF498
CAKI-1 = tested on: CAKI-1
COLO 205 = tested on: COLO 205
EKVX = tested on: EKVX
HCT-15 = tested on: HCT-15
HOP-92 = tested on: HOP-92
HT-29 = tested on: HT-29
KM12 = tested on: KM12
LXFL 529 = tested on: LXFL 529
NCI-H226 = tested on: NCI-H226
NCI-H23 = tested on: NCI-H23
OVCAR-4 = tested on: OVCAR-4
OVCAR-8 = tested on: OVCAR-8
RPMI-8226 = tested on: RPMI-8226
SF-295 = tested on: SF-295
SK-OV-3 = tested on: SK-OV-3
SNB-19 = tested on: SNB-19
U-251 = tested on: U-251
UO-31 = tested on: UO-31
A498 = tested on: A498
HL-60 = tested on: HL-60
IGROV-1 = tested on: IGROV-1
K562 = tested on: K562
MCF7 = tested on: MCF7
MOLT-4 = tested on: MOLT-4
NCI-H522 = tested on: NCI-H522
OVCAR-3 = tested on: OVCAR-3
OVCAR-5 = tested on: OVCAR-5
SK-MEL-28 = tested on: SK-MEL-28
SK-MEL-5 = tested on: SK-MEL-5
UACC-257 = tested on: UACC-257
UACC-62 = tested on: UACC-62

Measured: GI50

Nc1ncnc2c1ncn2C1OC(CO)C(O)C1O (stereo not given)
inactive: 786-0 43.3 µM | A549 132 µM | ACHN 40.6 µM | CCRF-CEM 36.7 µM and 34.3 µM | DLD-1 > 373 µM | DMS-114 68.1 µM | DMS-273 103 µM | DU-145 22.9 µM | HCC 2998 34.9 µM and 43.4 µM | HCT-116 106 µM and 58.2 µM | HOP-18 107 µM | HOP-62 61.9 µM and 70.5 µM | KM-20L2 234 µM | LOX IMVI 84.3 µM and 44.2 µM | M14 > 100 µM | M19-MEL 333 µM | MDA-MB-231 > 100 µM | MDA-MB-435 > 100 µM | MDA-N > 100 µM | Malme-3M 274 µM | NCI-H460 22.3 µM | NCI/ADR-RES 117 µM | PC-3 31 µM | RXF 393 104 µM | SF-268 232 µM | SF-539 179 µM | SK-MEL-2 97.1 µM | SN12C 136 µM | SNB-75 117 µM | SNB-78 > 450 µM | SW-620 153 µM | T47D 77.3 µM | TK-10 > 100 µM | XF498 > 450 µM

O=c1c2cc(O)ccc2n2nnc3ccc(NCCNCCO)c1c32
77.8 µM: HCT-15
inactive: 786-0 4.86 µM | CAKI-1 5.68 µM | COLO 205 5.33 µM | DMS-114 2.28 µM | DMS-273 9.18 µM | EKVX 26.2 µM | HCT-116 4.62 µM | HOP-18 26.9 µM | HOP-92 3.49 µM | HT-29 8.77 µM | KM12 20.2 µM | LOX IMVI 3.23 µM | LXFL 529 3.2 µM | NCI-H226 2.6 µM | NCI-H23 11.7 µM | OVCAR-4 5.09 µM | OVCAR-8 3.53 µM | RPMI-8226 17.1 µM | SF-268 1.39 µM | SF-295 15.2 µM | SF-539 4.56 µM | SK-OV-3 5.08 µM | SNB-19 4.09 µM | U-251 1.27 µM | UO-31 26.9 µM | XF498 1.71 µM

N=C(N)SCc1cccc([N+](=O)[O-])c1
34.5 µM: HCT-15
inactive: A498 25.1 µM | A549 39.7 µM | CAKI-1 24.4 µM | CCRF-CEM 27.7 µM | COLO 205 21.5 µM | DLD-1 27.2 µM | DMS-114 23.6 µM | DMS-273 30.2 µM | EKVX 42.3 µM | HCC 2998 34.1 µM | HCT-116 26.5 µM | HL-60 18.8 µM | HOP-18 26.9 µM | HOP-62 26.7 µM | HOP-92 20.9 µM | HT-29 30.1 µM | IGROV-1 57.7 µM | K562 22.1 µM | KM-20L2 31.7 µM | KM12 24.4 µM | LOX IMVI 31.9 µM | M19-MEL 35.3 µM | MCF7 28.4 µM | MOLT-4 32.7 µM | Malme-3M 34.2 µM | NCI-H226 24.3 µM | NCI-H23 30.5 µM | NCI-H460 34.1 µM | NCI-H522 13.5 µM | NCI/ADR-RES 21.2 µM | OVCAR-3 18.6 µM | OVCAR-4 30.3 µM | OVCAR-5 48.2 µM | OVCAR-8 26.2 µM | RPMI-8226 22.8 µM | RXF 393 24.8 µM | SF-268 33 µM | SF-295 38.9 µM | SF-539 25.5 µM | SK-MEL-28 31.8 µM | SK-MEL-2 24 µM | SK-MEL-5 32 µM | SK-OV-3 > 57.1 µM | SN12C 37 µM | SNB-19 > 10 µM | SNB-75 30.3 µM | SNB-78 35.6 µM | SW-620 36.6 µM | U-251 44.7 µM | UACC-257 27.2 µM | UACC-62 39.5 µM | UO-31 36.8 µM | XF498 25.1 µM
